The target in this assay is human Cav2.2 (Homo sapiens, UniProt Q00975). In words: Assessment of calcium channel activity using FLIPR (Ca2+ influx in IMR32 cells). In kind it is cell-based. The following applies: IMR32 cells endogenously expressing human Cav2.2; 60 minute pre-incubation; 2 μM nifedipine; depolarized with 80 mM KCl, 5 mM CaCl2. The protocol: (i) In Vitro Methods—Assessment of Calcium Channel Activity Using FLIPR:
The IMR32 cells were maintained in MEM media containing 10% (v/v) FBS, 1% (v/v) antibiotic/antimitotic, 1% (v/v) sodium pyruvate and 1% (v/v) MEM NEAA. Following dissociation in 0.05% (v/v) trypsin/EDTA, cells were seeded into black 1×96-well plates (Corning Cellbind) at a density of 1-1.2×10^5 cells/well and incubated in the maintenance media above for 48 hours at 37° C. […] After dye loading and a subsequent 60 minute pre-incubation with compounds (full log dilutions from 10 μM to 0.1 nM) in the presence of 1.3 mM CaCl2 and 2 μM nifedipine to block endogenous L-type channels, the external Ca^2+ concentration was increased to 5 mM CaCl2 and the cells concomitantly depolarized with 80 mM KCl to assay channel activity. To determine the IC50 values, the percent inhibition of the compound at each concentration was determined relative to the activity in the absence of inhibitor, and data was fitted using non-linear regression sigmoidal dose response curve analysis with GraphPad Prism®.

SMILES strings stand for the structures.

Chain of human Cav2.2 (Q00975 whole entry): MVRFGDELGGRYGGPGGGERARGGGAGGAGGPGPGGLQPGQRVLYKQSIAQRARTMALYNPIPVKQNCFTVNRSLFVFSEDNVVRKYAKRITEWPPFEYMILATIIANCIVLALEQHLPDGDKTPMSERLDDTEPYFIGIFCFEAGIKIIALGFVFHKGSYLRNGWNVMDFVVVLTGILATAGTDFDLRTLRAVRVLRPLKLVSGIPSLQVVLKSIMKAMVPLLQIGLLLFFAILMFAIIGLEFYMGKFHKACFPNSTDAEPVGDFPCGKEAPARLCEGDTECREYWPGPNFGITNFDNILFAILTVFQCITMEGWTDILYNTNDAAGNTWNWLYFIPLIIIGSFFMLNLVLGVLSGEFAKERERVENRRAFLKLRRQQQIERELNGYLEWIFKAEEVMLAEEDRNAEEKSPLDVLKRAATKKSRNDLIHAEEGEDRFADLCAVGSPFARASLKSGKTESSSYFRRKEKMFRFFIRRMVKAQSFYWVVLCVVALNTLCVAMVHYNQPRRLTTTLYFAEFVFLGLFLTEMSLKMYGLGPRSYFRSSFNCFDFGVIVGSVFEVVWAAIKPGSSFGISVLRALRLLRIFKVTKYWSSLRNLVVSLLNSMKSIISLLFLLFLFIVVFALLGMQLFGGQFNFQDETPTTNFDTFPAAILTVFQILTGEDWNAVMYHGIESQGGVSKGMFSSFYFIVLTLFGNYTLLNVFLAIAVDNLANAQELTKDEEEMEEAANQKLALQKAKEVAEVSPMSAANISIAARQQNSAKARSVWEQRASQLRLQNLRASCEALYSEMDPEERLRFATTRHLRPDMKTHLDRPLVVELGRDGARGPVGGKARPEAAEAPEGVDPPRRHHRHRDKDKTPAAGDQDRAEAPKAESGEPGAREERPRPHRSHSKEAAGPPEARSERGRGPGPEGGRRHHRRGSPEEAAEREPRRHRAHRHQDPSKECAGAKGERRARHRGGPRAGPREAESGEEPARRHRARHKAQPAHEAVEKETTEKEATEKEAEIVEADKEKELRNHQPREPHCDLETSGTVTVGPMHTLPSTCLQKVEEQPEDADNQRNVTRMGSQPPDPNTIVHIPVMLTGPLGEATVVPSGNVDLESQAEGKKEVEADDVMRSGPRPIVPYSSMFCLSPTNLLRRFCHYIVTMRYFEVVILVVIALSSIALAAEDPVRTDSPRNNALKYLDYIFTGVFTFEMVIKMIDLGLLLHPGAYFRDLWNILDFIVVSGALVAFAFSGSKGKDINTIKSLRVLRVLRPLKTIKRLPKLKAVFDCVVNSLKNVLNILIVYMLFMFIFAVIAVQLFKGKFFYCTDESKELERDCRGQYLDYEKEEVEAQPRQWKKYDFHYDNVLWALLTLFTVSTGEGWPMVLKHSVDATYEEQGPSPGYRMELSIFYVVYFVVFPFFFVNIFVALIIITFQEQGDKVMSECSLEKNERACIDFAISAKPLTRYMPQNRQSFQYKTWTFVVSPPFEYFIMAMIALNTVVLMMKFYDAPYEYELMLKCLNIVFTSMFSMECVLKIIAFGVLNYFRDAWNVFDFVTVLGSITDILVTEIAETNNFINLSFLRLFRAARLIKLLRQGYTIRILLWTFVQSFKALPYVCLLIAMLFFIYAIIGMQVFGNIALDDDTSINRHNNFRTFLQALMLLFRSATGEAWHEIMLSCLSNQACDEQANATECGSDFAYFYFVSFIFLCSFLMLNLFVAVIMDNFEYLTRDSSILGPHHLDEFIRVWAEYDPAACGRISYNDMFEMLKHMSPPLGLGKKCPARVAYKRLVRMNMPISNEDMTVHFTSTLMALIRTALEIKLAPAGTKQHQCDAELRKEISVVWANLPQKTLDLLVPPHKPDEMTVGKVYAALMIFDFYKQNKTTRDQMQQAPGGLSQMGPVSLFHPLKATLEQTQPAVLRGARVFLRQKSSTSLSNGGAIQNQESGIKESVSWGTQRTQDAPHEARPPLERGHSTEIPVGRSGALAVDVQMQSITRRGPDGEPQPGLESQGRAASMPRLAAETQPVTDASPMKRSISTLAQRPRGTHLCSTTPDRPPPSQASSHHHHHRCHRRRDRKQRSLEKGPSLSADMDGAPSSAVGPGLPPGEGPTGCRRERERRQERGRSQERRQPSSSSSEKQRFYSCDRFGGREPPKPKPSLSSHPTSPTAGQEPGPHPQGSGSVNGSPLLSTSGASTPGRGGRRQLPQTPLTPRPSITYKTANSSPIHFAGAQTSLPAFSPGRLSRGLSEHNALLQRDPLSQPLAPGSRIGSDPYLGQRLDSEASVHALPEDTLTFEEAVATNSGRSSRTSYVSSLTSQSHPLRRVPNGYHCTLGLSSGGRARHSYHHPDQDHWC
Chain of human Cav2.2 (P54289 25-951 partner limits assumed): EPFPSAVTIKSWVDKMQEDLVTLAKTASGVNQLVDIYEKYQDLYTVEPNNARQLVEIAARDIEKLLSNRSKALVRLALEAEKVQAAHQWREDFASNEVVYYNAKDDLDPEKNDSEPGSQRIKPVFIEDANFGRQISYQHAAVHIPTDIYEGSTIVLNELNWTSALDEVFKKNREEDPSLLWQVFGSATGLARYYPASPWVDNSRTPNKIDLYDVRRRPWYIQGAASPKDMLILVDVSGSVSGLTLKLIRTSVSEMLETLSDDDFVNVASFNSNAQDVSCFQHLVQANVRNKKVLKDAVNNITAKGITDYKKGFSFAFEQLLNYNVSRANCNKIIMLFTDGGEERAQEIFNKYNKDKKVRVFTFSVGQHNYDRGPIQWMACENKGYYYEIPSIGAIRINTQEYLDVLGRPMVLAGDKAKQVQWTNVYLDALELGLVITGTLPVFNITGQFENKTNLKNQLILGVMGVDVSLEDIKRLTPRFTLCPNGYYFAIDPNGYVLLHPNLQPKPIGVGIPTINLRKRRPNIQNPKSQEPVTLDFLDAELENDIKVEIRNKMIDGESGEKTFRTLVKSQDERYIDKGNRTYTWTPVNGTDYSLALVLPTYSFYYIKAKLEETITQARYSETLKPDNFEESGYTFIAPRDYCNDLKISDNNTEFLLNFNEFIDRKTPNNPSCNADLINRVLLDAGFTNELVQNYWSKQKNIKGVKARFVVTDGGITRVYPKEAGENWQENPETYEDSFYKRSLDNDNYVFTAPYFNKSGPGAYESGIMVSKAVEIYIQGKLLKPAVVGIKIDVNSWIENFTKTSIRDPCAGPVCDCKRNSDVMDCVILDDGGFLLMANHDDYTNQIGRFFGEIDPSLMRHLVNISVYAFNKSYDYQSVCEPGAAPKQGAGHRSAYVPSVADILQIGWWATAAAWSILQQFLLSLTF
Chain of human Cav2.2 (P54289 952-1103 partner limits assumed): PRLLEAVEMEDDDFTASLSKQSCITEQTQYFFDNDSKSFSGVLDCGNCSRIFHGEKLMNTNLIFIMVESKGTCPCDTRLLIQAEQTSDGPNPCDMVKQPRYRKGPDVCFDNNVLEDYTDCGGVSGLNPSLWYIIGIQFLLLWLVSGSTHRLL
Chain of human Cav2.2 (P54284 whole entry partner): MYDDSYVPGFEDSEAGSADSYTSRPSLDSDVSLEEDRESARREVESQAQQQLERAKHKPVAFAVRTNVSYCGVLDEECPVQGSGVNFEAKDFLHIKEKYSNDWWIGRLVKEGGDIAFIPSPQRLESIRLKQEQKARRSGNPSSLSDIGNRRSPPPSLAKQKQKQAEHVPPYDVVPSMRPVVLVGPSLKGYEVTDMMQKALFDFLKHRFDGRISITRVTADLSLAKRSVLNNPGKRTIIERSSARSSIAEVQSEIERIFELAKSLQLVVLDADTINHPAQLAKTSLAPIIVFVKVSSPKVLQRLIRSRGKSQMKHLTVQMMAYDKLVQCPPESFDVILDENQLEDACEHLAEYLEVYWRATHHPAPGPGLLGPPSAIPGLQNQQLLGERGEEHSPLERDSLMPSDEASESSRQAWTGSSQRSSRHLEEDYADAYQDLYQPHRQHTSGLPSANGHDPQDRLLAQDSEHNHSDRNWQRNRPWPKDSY

On to `O=C(CN1CCCC(c2ccccc2)(c2ccccc2)C1=O)N1CCC(Oc2cccc(Cl)c2)CC1` [Example 159, 1-{2-[4-(3-chlorophenoxy)piperidin-1-yl]-2-oxoethyl}-3,3-diphenylpiperidin-2-one], for which the IC50 is 3730 nM.

Regarding `O=C1N(Cc2nc(-c3cnccn3)no2)CCC1(c1ccc(F)cc1)c1ccc(F)cc1` [Example 232, 3,3-bis(4-fluorophenyl)-1-[(3-pyrazin-2-yl-1,2,4-oxadiazol-5-yl)methyl]pyrrolidin-2-one], the IC50 worked out at 1910 nM.

For `O=C1N(Cc2nc(-c3ccc(F)cc3)no2)CCC1(c1ccccc1)c1ccccc1` [Example 194, 1-{[3-(4-fluorophenyl)-1,2,4-oxadiazol-5-yl]methyl}-3,3-diphenylpyrrolidin-2-one], the concentration for half-maximal inhibition (IC50) was 4080 nM.

For the compound `O=C(CN1CCC[C@H](c2ccccc2)C1=O)N1Cc2ccc(F)cc2C1` (single isomer, unassigned) [Example 188], the IC50 is over 30000 nM.

With `O=C(CN1CCCC(c2ccccc2)(c2ccccc2)C1=O)N1CCC(c2ccccc2)(c2ccccc2)C1` [Example 174, 1-[2-(3,3-diphenylpyrrolidin-1-yl)-2-oxoethyl]-3,3-diphenylpiperidin-2-one], the IC50 worked out at 2430 nM.

On to `COc1cc(CN2CCN(CCCN3CCC(c4ccc(F)cc4)(c4ccc(F)cc4)C3=O)CC2)cc(OC)c1OC` [Example 110, 3,3-bis(4-fluorophenyl)-1-{3-[4-(3,4,5-trimethoxybenzyl)piperazin-1-yl]propyl}pyrrolidin-2-one], for which the IC50 came to 1470 nM.

For the compound `O=C1CN(CCN2CCC(c3ccccc3)(c3ccccc3)C2=O)CCN1C(c1ccccc1)c1ccccc1` [Example 66, 1-benzhydryl-4-[2-(2-oxo-3,3-diphenylpyrrolidin-1-yl)ethyl]piperazin-2-one], the IC50 was determined as 1830 nM.

Consider `O=C1[C@H](c2ccc(F)cc2)CCN1Cc1nc(-c2ccc(C(F)(F)F)cc2)no1` (single isomer, unassigned) [Example 236], for which the IC50 worked out at 2750 nM.

On to `N#Cc1ccc(NC(=O)CN2CCC(c3ccc(F)cc3)(c3ccc(F)cc3)C2=O)nc1` [Example 252, 2-[3,3-bis(4-fluorophenyl)-2-oxopyrrolidin-1-yl]-N-(5-cyanopyridin-2-yl)acetamide], for which the 50% inhibitory concentration (IC50) was found to be 2970 nM.

As to `COc1cccc(C2(C(C)C)CCCN(CCCN(C)CCc3ccc(F)cc3)C2=O)c1` (stereo not drawn) [Example 129, 1-{3-[[2-(4-fluorophenyl)ethyl](methyl)amino]propyl}-3-isopropyl-3-(3-methoxyphenyl)piperidin-2-one], the half-maximal inhibitory concentration (IC50) came to 1140 nM.

In the case of `O=C(CN1CCC(c2ccccc2)(c2ccccc2)C1=O)NCc1ncco1` [Example 168, N-(1,3-oxazol-2-ylmethyl)-2-(2-oxo-3,3-diphenylpyrrolidin-1-yl)acetamide], the half-maximal inhibitory concentration (IC50) is over 30000 nM.

Take `O=C(CN1CCC(c2ccccc2)(c2ccccc2)C1=O)NCC1CCN(Cc2ccccc2)C1` (stereo not drawn) [Example 39, N-[(1-benzylpyrrolidin-3-yl)methyl]-2-(2-oxo-3,3-diphenylpyrrolidin-1-yl)acetamide]: the IC50 was 2600 nM.

`O=C(CN1CCC(c2ccccc2)(c2ccccc2)C1=O)N[C@H]1CC[C@H]2CN(Cc3cccc(C(F)(F)F)c3)C[C@H]21` (relative stereo) [Example 56, 2-(2-oxo-3,3-diphenylpyrrolidin-1-yl)-N-{(3aS*,4S*,6aR*)-2-[3-(trifluoromethyl)benzyl]octahydrocyclopenta[c]pyrrol-4-yl}acetamide]: the IC50 worked out at 1100 nM.

As to `COc1ccc(C2(c3ccc(OC)cc3)CCCN(CCN(C)C3Cc4ccccc4C3)C2=O)cc1` [Example 113, 1-{2-[2,3-dihydro-1H-inden-2-yl(methyl)amino]ethyl}-3,3-bis(4-methoxyphenyl)piperidin-2-one], the 50% inhibitory concentration (IC50) is 3190 nM.

For the compound `COc1ccc(C2(c3ccc(OC)cc3)CCCN(CCN(C)CCc3ccc(OC)cc3OC)C2=O)cc1` [Example 126, 1-{2-[[2-(2,4-dimethoxyphenyl)ethyl](methyl)amino]ethyl}-3,3-bis(4-methoxyphenyl)piperidin-2-one], the IC50 was found to be 1490 nM.

Turning to `O=C(CN1CCC(c2ccc(F)cc2)C1=O)N1Cc2ccc(C(F)(F)F)cc2C1` (single isomer, unassigned; (-)) [Example 265, (−)-3-(4-fluorophenyl)-1-{2-oxo-2-[5-(trifluoromethyl)-1,3-dihydro-2H-isoindol-2-yl]ethyl}pyrrolidin-2-one], the 50% inhibitory concentration (IC50) worked out at 11100 nM.

Regarding `O=C(CN1CCC(c2ccccc2)(c2ccccc2)C1=O)NCc1ccc(F)cc1` [Example 12, N-(4-fluorobenzyl)-2-(2-oxo-3,3-diphenylpyrrolidin-1-yl)acetamide], the concentration for half-maximal inhibition (IC50) came out at 3890 nM.

With `COCc1cc(/C=C/c2ccccc2OCC(O)CN(C)CCN2CCC(c3ccc(F)cc3)(c3ccc(F)cc3)C2=O)on1` (stereo not drawn) [Example 107, 3,3-bis(4-fluorophenyl)-1-{2-[[2-hydroxy-3-(2-{(E)-2-[3-(methoxymethyl)isoxazol-5-yl]vinyl}phenoxy)propyl](methyl)amino]ethyl}pyrrolidin-2-one], the concentration for half-maximal inhibition (IC50) stood at 1880 nM.

`O=C(CN1CCCC(c2ccccc2)(c2ccccc2)C1=O)NC1CN(Cc2cccc(C(F)(F)F)c2F)C1` [Example 201, N-{1-[2-fluoro-3-(trifluoromethyl)benzyl]azetidin-3-yl}-2-(2-oxo-3,3-diphenylpiperidin-1-yl)acetamide]: the 50% inhibitory concentration (IC50) turned out to be 860 nM.

Consider `O=C(CN1CCCC(c2ccccc2)(c2ccccc2)C1=O)N1CCN(S(=O)(=O)c2cccc(C(F)(F)F)c2)CC1` [Example 84, 1-[2-oxo-2-(4-{[3-(trifluoromethyl)phenyl]sulfonyl}piperazin-1-yl)ethyl]-3,3-diphenylpiperidin-2-one], for which the IC50 came to 410 nM.

As for `O=C(CN1CCC(c2ccc(F)cc2)(c2ccc(F)cc2)C1=O)N1CCN(Cc2cccc(C(F)(F)F)c2)CC1` [Example 60, 3,3-bis(4-fluorophenyl)-1-(2-oxo-2-{4-[3-(trifluoromethyl)benzyl]piperazin-1-yl}ethyl)pyrrolidin-2-one], the IC50 is 1010 nM.

On to `O=C(CN1CCC(c2ccccc2)(c2ccccc2)C1=O)NCc1ccc(C(F)(F)F)cc1` [Example 8, 2-(2-oxo-3,3-diphenylpyrrolidin-1-yl)-N-[4-(trifluoromethyl)benzyl]acetamide], for which the IC50 was determined as 1490 nM.

In the case of `CC1(C)C(=O)N(CCN2CCC(c3ccccc3)(c3ccccc3)C2=O)CCN1Cc1cccs1` [Example 65, 3,3-dimethyl-1-[2-(2-oxo-3,3-diphenylpyrrolidin-1-yl)ethyl]-4-(thien-2-ylmethyl)piperazin-2-one], the concentration for half-maximal inhibition (IC50) was found to be 1040 nM.

As for `O=C(CN1CCC(c2ccc(F)cc2)(c2ccc(F)cc2)C1=O)N1CCC(c2ccccc2)(c2ccccc2)C1` [Example 61, 1-[2-(3,3-diphenylpyrrolidin-1-yl)-2-oxoethyl]-3,3-bis(4-fluorophenyl)pyrrolidin-2-one], the 50% inhibitory concentration (IC50) worked out at 1310 nM.

In the case of `O=C1N(Cc2nc(CCc3ccccc3Cl)no2)CCCC1(c1ccccc1)c1ccccc1` [Example 262, 1-({3-[2-(2-chlorophenyl)ethyl]-1,2,4-oxadiazol-5-yl}methyl)-3,3-diphenylpiperidin-2-one], the concentration for half-maximal inhibition (IC50) is 3390 nM.

For the compound `O=C(CN1CCCC(c2ccccc2)(c2ccccc2)C1=O)N1CCC(n2nnc3cc(C(F)(F)F)ccc32)CC1` [Example 164, 1-(2-oxo-2-{4-[5-(trifluoromethyl)-1H-1,2,3-benzotriazol-1-yl]piperidin-1-yl}ethyl)-3,3-diphenylpiperidin-2-one], the IC50 was determined as 2020 nM.

On to `O=C(CN1CCC(c2ccccc2)(c2ccccc2)C1=O)NCc1ccccc1` [Example 6, N-benzyl-2-(2-oxo-3,3-diphenylpyrrolidin-1-yl)acetamide], for which the 50% inhibitory concentration (IC50) turned out to be 5740 nM.

Consider `O=C(CN1CCC(c2ccccc2)(c2ccccc2)C1=O)NC1Cc2ccccc2C1` [Example 22, N-2,3-dihydro-1H-inden-2-yl-2-(2-oxo-3,3-diphenylpyrrolidin-1-yl)acetamide], for which the half-inhibitory concentration (IC50) worked out at 3960 nM.

With `O=C(CN1CCC(c2ccccc2)(c2ccccc2)C1=O)N1Cc2ccc(F)cc2C1` [Example 26, 1-[2-(5-fluoro-1,3-dihydro-2H-isoindol-2-yl)-2-oxoethyl]-3,3-diphenylpyrrolidin-2-one], the half-maximal inhibitory concentration (IC50) stood at 4930 nM.

Turning to `N#Cc1ccc(C2CN(C(=O)CN3CCCC(c4ccccc4)(c4ccccc4)C3=O)C2)cc1` [Example 241, 4-{1-[(2-oxo-3,3-diphenylpiperidin-1-yl)acetyl]azetidin-3-yl}benzonitrile], the concentration for half-maximal inhibition (IC50) came out at 8960 nM.

For the compound `O=C(CN1CCC(c2ccc(F)cc2)(c2ccc(F)cc2)C1=O)N1CCc2ccc(C(F)(F)F)cc2C1` [Example 259, 3,3-bis(4-fluorophenyl)-1-{2-oxo-2-[7-(trifluoromethyl)-3,4-dihydroisoquinolin-2(1H)-yl]ethyl}pyrrolidin-2-one], the half-maximal inhibitory concentration (IC50) was determined as 2550 nM.

As for `CC(C)COc1ccc(-c2noc(CN3CCCC(c4ccccc4)(c4ccccc4)C3=O)n2)cc1` [Example 209, 1-{[3-(4-isobutoxyphenyl)-1,2,4-oxadiazol-5-yl]methyl}-3,3-diphenylpiperidin-2-one], the IC50 stood at 10700 nM.

As for `O=C(CN1CCNC(c2ccccc2)C1=O)N1CCN(C(c2ccc(F)cc2)c2ccc(F)cc2)CC1` (stereo not drawn) [Example 103, 1-(2-{4-[bis(4-fluorophenyl)methyl]piperazin-1-yl}-2-oxoethyl)-3-phenylpiperazin-2-one], the IC50 stood at 10600 nM.

The values above are taken from patent publication US8044069B2, “Compounds as calcium channel blockers” (Abbott Laboratories, priority 2008, dated 2011).
